The results in this text go back to patent publication US12528814B2, “Bifunctional degraders of interleukin-1 receptor-associated kinases and therapeutic use thereof” (NURIX THERAPEUTICS, INC., priority 2020, dated 2026).

By IC50 is commonly meant the concentration at which inhibition is half-maximal. The Dmax is the greatest extent of degradation seen. One may read the DC50 as the concentration giving 50% degradation.

For assay [1], the target named is T1, IRAK4 (Homo sapiens (Human), UniProt Q9NWZ3). The experiment in a line: IRAK4 Biochemical HTRF Kinase Assay. The following applies: Table 5; multiple runs; read-out: IRAK4 HTRF biochemical: IC50. The essentials:
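IC50 values derive from non-linear regression of sixteen concentrations in duplicate. Kinase reaction ran 90 min at ambient temperature after adding 5 μM STK-S1 substrate, 10 mM ATP and 10 mM MgCl2 (reaction-solution levels, pre-dilution to 10 μl); phospho-peptide detected by HTRF after 60 min.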
For orientation: Time-resolved FRET reads energy transfer from a long-lived donor to a nearby acceptor.
Target sequence in this assay (Q9NWZ3 whole entry, species assumed): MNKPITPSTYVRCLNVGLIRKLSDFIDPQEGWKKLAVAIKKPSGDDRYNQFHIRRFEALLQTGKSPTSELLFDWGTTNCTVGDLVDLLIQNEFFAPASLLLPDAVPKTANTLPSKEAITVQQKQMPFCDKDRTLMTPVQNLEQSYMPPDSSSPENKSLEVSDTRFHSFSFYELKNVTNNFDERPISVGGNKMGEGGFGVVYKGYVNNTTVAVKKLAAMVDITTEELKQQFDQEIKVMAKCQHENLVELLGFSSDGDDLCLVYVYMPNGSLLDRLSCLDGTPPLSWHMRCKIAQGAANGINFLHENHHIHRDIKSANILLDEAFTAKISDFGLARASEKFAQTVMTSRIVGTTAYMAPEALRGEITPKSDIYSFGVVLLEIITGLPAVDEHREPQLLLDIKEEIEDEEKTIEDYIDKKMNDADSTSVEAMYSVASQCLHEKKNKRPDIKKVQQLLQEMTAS

The target of assay [2] is T1, IRAK4. As to the kind of experiment: IRAK4 Degradation HiBiT Assay. The following applies: multiple runs, HiBiT-tagged Jurkat cells, 4 hrs; for Dmax: Jurkat, read-out: Cellular IRAK4 HiBiT: Dmax, Table 5; for DC50: read-out: Cellular IRAK4 HiBiT: DC50, Table 5.
Target sequence in this assay (Q9NWZ3 whole entry): as the sequence (Q9NWZ3 whole entry, species assumed) above

With `Cc1ncsc1-c1ccc(CNC(=O)[C@@H]2C[C@@H](O)CN2C(=O)[C@@H](NC(=O)C2(F)CC2)C(C)(C)C)c(OCC(=O)N2CCC(C(=O)N3CCN(c4nnc(-c5cnc(-c6ccc7cc(C#N)cnn67)cc5NC(C)C)s4)CC3)CC2)c1` [Example 80, (2S,4R)—N-(2-(2-(4-(4-(5-(6-(3-cyanopyrrolo[1,2-b]pyridazin-7-yl)-4-(isopropylamino)pyridin-3-yl)-1,3,4-thiadiazol-2-yl)piperazine-1-carbonyl)piperidin-1-yl)-2-oxoethoxy)-4-(4-methylthiazol-5-yl)benzyl)-1-((S)-2-(1-fluorocyclopropane-1-carboxamido)-3,3-dimethylbutanoyl)-4-hydroxypyrrolidine-2-carboxamide], at IRAK4 [1], the concentration for half-maximal inhibition (IC50) was 3.7 nM. Also, on IRAK4 [2], the Dmax came to 115% and the DC50 came to 313 nM.

As for `CC(C)Nc1cc(-c2ccc3cc(C#N)cnn23)ncc1-c1nnc(N2CCC3(CCN(Cc4ccc5c(c4)C(=O)N(C4CCC(=O)NC4=O)C5=O)CC3)CC2)s1` (centres unmarked) [Example 81, 7-(5-(5-(9-((2-(2,6-dioxopiperidin-3-yl)-1,3-dioxoisoindolin-5-yl)methyl)-3,9-diazaspiro[5.5]undecan-3-yl)-1,3,4-thiadiazol-2-yl)-4-(isopropylamino)pyridin-2-yl)pyrrolo[1,2-b]pyridazine-3-carbonitrile], at IRAK4 [1], the IC50 came to 1.8 nM. In addition, on IRAK4 [2], the Dmax turned out to be 81% and the DC50 is 64.9 nM.

Turning to `CC(C)Nc1cc(-c2ccc3cc(C#N)cnn23)ncc1-c1nnc(N2CCC3(CCN(C(=O)CNc4cccc5c4C(=O)N(C4CCC(=O)NC4=O)C5=O)CC3)CC2)s1` (centres unmarked) [Example 82, 7-(5-(5-(9-((2-(2,6-dioxopiperidin-3-yl)-1,3-dioxoisoindolin-4-yl)glycyl)-3,9-diazaspiro[5.5]undecan-3-yl)-1,3,4-thiadiazol-2-yl)-4-(isopropylamino)pyridin-2-yl)pyrrolo[1,2-b]pyridazine-3-carbonitrile], the IC50 on IRAK4 [1] is 3.1 nM. Also, at IRAK4 [2], the Dmax is 61% and the DC50 is 72.8 nM.

Turning to `Cc1ncsc1-c1ccc(CNC(=O)[C@@H]2C[C@@H](O)CN2C(=O)[C@@H](NC(=O)C2(F)CC2)C(C)(C)C)c(OCC(=O)N2CCC3(CC2)CCN(c2nnc(-c4cnc(-c5ccc6cc(C#N)cnn56)cc4NC(C)C)s2)CC3)c1` [Example 83, (2S,4R)—N-(2-(2-(9-(5-(6-(3-cyanopyrrolo[1,2-b]pyridazin-7-yl)-4-(isopropylamino)pyridin-3-yl)-1,3,4-thiadiazol-2-yl)-3,9-diazaspiro[5.5]undecan-3-yl)-2-oxoethoxy)-4-(4-methylthiazol-5-yl)benzyl)-1-((S)-2-(1-fluorocyclopropane-1-carboxamido)-3,3-dimethylbutanoyl)-4-hydroxypyrrolidine-2-carboxamide], the IC50 on IRAK4 [1] stood at 6.8 nM. For the same molecule, at IRAK4 [2], the Dmax is 109% and the DC50 came out at 319 nM.

On to `Cc1ncsc1-c1ccc(CNC(=O)[C@@H]2C[C@@H](O)CN2C(=O)[C@@H](NC(=O)C2(F)CC2)C(C)(C)C)c(OCC(=O)N2CCC(CN3CCN(c4nnc(-c5cnc(-c6ccc7cc(C#N)cnn67)cc5NC(C)C)s4)CC3)CC2)c1` [Example 84, (2S,4R)—N-(2-(2-(4-((4-(5-(6-(3-cyanopyrrolo[1,2-b]pyridazin-7-yl)-4-(isopropylamino)pyridin-3-yl)-1,3,4-thiadiazol-2-yl)piperazin-1-yl)methyl)piperidin-1-yl)-2-oxoethoxy)-4-(4-methylthiazol-5-yl)benzyl)-1-((S)-2-(1-fluorocyclopropane-1-carboxamido)-3,3-dimethylbutanoyl)-4-hydroxypyrrolidine-2-carboxamide], for which, at IRAK4 [1], the half-maximal inhibitory concentration (IC50) was determined as 5.5 nM. For the same molecule, on IRAK4 [2], the Dmax worked out at 115% and the DC50 was found to be 247 nM.

Consider `CC(C)Nc1cc(-c2ccc3cc(C#N)cnn23)ncc1-c1nnc(N2CCN(CC3CCN(Cc4ccc5c(c4)C(=O)N(C4CCC(=O)NC4=O)C5=O)CC3)CC2)s1` (centres unmarked) [Example 85, 7-(5-(5-(4-((1-((2-(2,6-dioxopiperidin-3-yl)-1,3-dioxoisoindolin-5-yl)methyl)piperidin-4-yl)methyl)piperazin-1-yl)-1,3,4-thiadiazol-2-yl)-4-(isopropylamino)pyridin-2-yl)pyrrolo[1,2-b]pyridazine-3-carbonitrile], for which the IC50 at IRAK4 [1] worked out at 2.1 nM. The DC50 on IRAK4 [2] is over 970 nM.

For the molecule `CNc1cc(-c2ccc3cc(C#N)cnn23)ncc1-c1nnc(N2CCN(C(=O)C3CCN(Cc4ccc5c(c4)C(=O)N(C4CCC(=O)NC4=O)C5=O)CC3)CC2)s1` (centres unmarked) [Example 86, 7-(5-(5-(4-(1-((2-(2,6-dioxopiperidin-3-yl)-1,3-dioxoisoindolin-5-yl)methyl)piperidine-4-carbonyl)piperazin-1-yl)-1,3,4-thiadiazol-2-yl)-4-(methylamino)pyridin-2-yl)pyrrolo[1,2-b]pyridazine-3-carbonitrile], on IRAK4 [1], the half-inhibitory concentration (IC50) came out at 1.1 nM. On IRAK4 [2], the Dmax is 105% and the DC50 was 18.5 nM.

For the molecule `CC(C)Nc1cc(-c2ccc3cc(C#N)cnn23)ncc1-c1nnc(N2CCC3(CCN(C(=O)c4ccc5c(c4)C(=O)N(C4CCC(=O)NC4=O)C5)CC3)CC2)s1` (centres unmarked) [Example 87, 7-(5-(5-(9-(2-(2,6-dioxopiperidin-3-yl)-3-oxoisoindoline-5-carbonyl)-3,9-diazaspiro[5.5]undecan-3-yl)-1,3,4-thiadiazol-2-yl)-4-(isopropylamino)pyridin-2-yl)pyrrolo[1,2-b]pyridazine-3-carbonitrile], on IRAK4 [1], the IC50 came to 2.4 nM. In addition, on IRAK4 [2], the Dmax turned out to be 70% and the DC50 was determined as 15.8 nM.

As to `CNc1cc(-c2ccc3cc(C#N)cnn23)ncc1-c1nnc(N2CCN(C(=O)C[C@@H]3CCCN(c4cccc5c4C(=O)N(C4CCC(=O)NC4=O)C5=O)C3)CC2)s1` (stereo partly drawn) [Example 88, 7-(5-(5-(4-(2-((3S)-1-(2-(2,6-dioxopiperidin-3-yl)-1,3-dioxoisoindolin-4-yl)piperidin-3-yl)acetyl)piperazin-1-yl)-1,3,4-thiadiazol-2-yl)-4-(methylamino)pyridin-2-yl)pyrrolo[1,2-b]pyridazine-3-carbonitrile], the concentration for half-maximal inhibition (IC50) at IRAK4 [1] is 1.4 nM. For the same molecule, at IRAK4 [2], the DC50 is over 3330 nM.

On to `CNc1cc(-c2ccc3cc(C#N)cnn23)ncc1-c1nnc(N2CCN(C(=O)C3CCN(c4cccc5c4C(=O)N(C4CCC(=O)NC4=O)C5=O)CC3)CC2)s1` (centres unmarked) [Example 89, 7-(5-(5-(4-(1-(2-(2,6-dioxopiperidin-3-yl)-1,3-dioxoisoindolin-4-yl)piperidine-4-carbonyl)piperazin-1-yl)-1,3,4-thiadiazol-2-yl)-4-(methylamino)pyridin-2-yl)pyrrolo[1,2-b]pyridazine-3-carbonitrile], for which the IC50 on IRAK4 [1] came to 0.9 nM. Also, the DC50 at IRAK4 [2] was over 9980 nM.

On to `CNc1cc(-c2ccc3cc(C#N)cnn23)ncc1-c1nnc(N2CCC(NC(=O)C3CCN(c4cccc5c4C(=O)N(C4CCC(=O)NC4=O)C5=O)CC3)CC2)s1` (centres unmarked) [Example 90, N-(1-(5-(6-(3-cyanopyrrolo[1,2-b]pyridazin-7-yl)-4-(methylamino)pyridin-3-yl)-1,3,4-thiadiazol-2-yl)piperidin-4-yl)-1-(2-(2,6-dioxopiperidin-3-yl)-1,3-dioxoisoindolin-4-yl)piperidine-4-carboxamide], for which, on IRAK4 [1], the IC50 is 0.8 nM. Besides, at IRAK4 [2], the 50% degradation concentration (DC50) was over 9980 nM.

On to `CNc1cc(-c2ccc3cc(C#N)cnn23)ncc1-c1nnc(N2CCN(C[C@H]3CCN(c4ccc5c(c4)n(C)c(=O)n5C4CCC(=O)NC4=O)C3)CC2)s1` (stereo partly drawn) [Example 91, 7-(5-(5-(4-(((3R)-1-(1-(2,6-dioxopiperidin-3-yl)-3-methyl-2-oxo-2,3-dihydro-1H-benzo[d]imidazol-5-yl)pyrrolidin-3-yl)methyl)piperazin-1-yl)-1,3,4-thiadiazol-2-yl)-4-(methylamino)pyridin-2-yl)pyrrolo[1,2-b]pyridazine-3-carbonitrile], for which the IC50 on IRAK4 [1] came out at 1.6 nM. Also, at IRAK4 [2], the DC50 was over 970 nM.

`CNc1cc(-c2ccc3cc(C#N)cnn23)ncc1-c1nnc(N2CCN(C[C@@H]3CCN(c4ccc5c(c4)n(C)c(=O)n5C4CCC(=O)NC4=O)C3)CC2)s1` (stereo partly drawn) [Example 92, 7-(5-(5-(4-(((3S)-1-(1-(2,6-dioxopiperidin-3-yl)-3-methyl-2-oxo-2,3-dihydro-1H-benzo[d]imidazol-5-yl)pyrrolidin-3-yl)methyl)piperazin-1-yl)-1,3,4-thiadiazol-2-yl)-4-(methylamino)pyridin-2-yl)pyrrolo[1,2-b]pyridazine-3-carbonitrile]: the IC50 on IRAK4 [1] amounted to 1 nM. Further, the half-maximal degradation concentration (DC50) at IRAK4 [2] is over 970 nM.

As to `CNc1cc(-c2ccc3cc(C#N)cnn23)ncc1-c1nnc(N2CCC(NC[C@@H]3CCN(c4ccc5c(c4)n(C)c(=O)n5C4CCC(=O)NC4=O)C3)CC2)s1` (stereo partly drawn) [Example 93, 7-(5-(5-(4-((((3S)-1-(1-(2,6-dioxopiperidin-3-yl)-3-methyl-2-oxo-2,3-dihydro-1H-benzo[d]imidazol-5-yl)pyrrolidin-3-yl)methyl)amino)piperidin-1-yl)-1,3,4-thiadiazol-2-yl)-4-(methylamino)pyridin-2-yl)pyrrolo[1,2-b]pyridazine-3-carbonitrile], the half-inhibitory concentration (IC50) at IRAK4 [1] stood at 0.9 nM. Moreover, the DC50 at IRAK4 [2] is over 9980 nM.

As to `CNc1cc(-c2ccc3cc(C#N)cnn23)ncc1-c1nnc(N2CCN(C(=O)CN3CCN(c4ccc5c(c4)C(=O)N(C4CCC(=O)NC4=O)C5=O)CC3)CC2)s1` (centres unmarked) [Example 94, 7-(5-(5-(4-(2-(4-(2-(2,6-dioxopiperidin-3-yl)-1,3-dioxoisoindolin-5-yl)piperazin-1-yl)acetyl)piperazin-1-yl)-1,3,4-thiadiazol-2-yl)-4-(methylamino)pyridin-2-yl)pyrrolo[1,2-b]pyridazine-3-carbonitrile], the IC50 on IRAK4 [1] amounted to 0.6 nM. Further, at IRAK4 [2], the Dmax came to 113% and the DC50 is 321 nM.
